34 molecules from US20240109881A1, “Heteroaryl Compounds as Ligand Directed Degraders of IRAK4” (Bristol-Myers Squibb Company, priority 2022, published 2024) can be followed below.

The structures appear in SMILES notation.

This assay addresses T1, IRAK4 (Homo sapiens, UniProt Q9NWZ3).
T1 construct: endogenous in cells; host or cells: THP-1 cells
T1 sequence (Q9NWZ3 1-460): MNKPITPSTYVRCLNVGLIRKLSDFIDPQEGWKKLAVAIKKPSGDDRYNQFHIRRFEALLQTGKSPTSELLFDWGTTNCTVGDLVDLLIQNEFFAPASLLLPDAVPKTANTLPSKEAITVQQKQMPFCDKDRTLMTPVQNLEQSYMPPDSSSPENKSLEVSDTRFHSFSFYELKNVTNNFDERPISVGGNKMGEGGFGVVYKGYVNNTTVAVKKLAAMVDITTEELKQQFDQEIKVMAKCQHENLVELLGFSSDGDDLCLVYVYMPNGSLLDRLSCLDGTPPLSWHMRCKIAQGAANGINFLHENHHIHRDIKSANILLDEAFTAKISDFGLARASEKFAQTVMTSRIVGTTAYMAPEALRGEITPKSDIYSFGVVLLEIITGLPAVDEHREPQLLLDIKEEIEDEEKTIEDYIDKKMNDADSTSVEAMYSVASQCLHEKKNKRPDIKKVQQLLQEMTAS
In words: LVL THP1 HTRF (THP1 Homogeneous Time Resolved Fluorescence). The note with it: THP1 cells, 18 h incubation with compound; for DC50: read-out: LVL THP1 HTRF EC50. The format is cell-based. The gist of the method:
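IRAK4 HTRF read-out (665/615 nm ratio, anti-IRAK4 d2 acceptor and K donor, 18 h dark incubation at room temperature) on lysates of THP-1 cells. Cells were treated 18 h at 37° C. with 20 nL compound in DMSO, in colorless RPMI with 10% FBS, with a duplicate CTG plate.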
On the technique in general: In TR-FRET formats the signal depends on donor and acceptor labels being close together.

`C[C@H](C#N)Nc1cc(-n2ncc3cc(C#N)cnc32)ncc1-n1cc([C@H]2CC[C@H](CCN3CCN(Cc4ccc(N5CCC(=O)NC5=O)cc4)CC3)CC2)nn1` [P-422]: the “LVL THP1 HTRF YMIN” value is recorded as 39.6% and the DC50 amounted to 979 nM.
For the molecule `C[C@H](C#N)Nc1cc(-n2ncc3cc(C#N)cnc32)ncc1-n1cc([C@H]2CC[C@H](CCN3CCN(c4ccc(N5CCC(=O)NC5=O)nn4)CC3)CC2)nn1` [P-423], the “LVL THP1 HTRF YMIN” value was found to be 8.6% and the DC50 was determined as 143 nM.
For `C[C@H](C#N)Nc1cc(-n2ncc3cc(C#N)cnc32)ncc1C(=O)N[C@H]1CC[C@H](CCN2CCC(c3ccn(C4CCC(=O)NC4=O)c(=O)c3)CC2)CC1` (some centres unmarked) [P-425], the “LVL THP1 HTRF YMIN” value came to 0.8% and the DC50 amounted to 124 nM.
In the same order, the values of `C[C@H](C#N)Nc1cc(-n2ncc3cc(C#N)c(N)nc32)ncc1-n1cc([C@H]2CC[C@H](CCN3CCN(c4ccc(N5CCC(=O)NC5=O)cn4)CC3)CC2)nn1` [P-428] are −0.6% and 3.2 nM.
In the same order, the values of `C[C@H](C#N)Nc1cc(-n2ncc3cc(C#N)cnc32)ncc1-n1cc([C@H]2CC[C@H](CCN3CC4(CC(c5ccc(N6CCC(=O)NC6=O)c(Cl)c5)C4)C3)CC2)nn1` [P-432] are 1.8% and 1.3 nM.
In the same order, the values of `C[C@H](C#N)Nc1cc(-n2ncc3cc(C#N)cnc32)ncc1C(=O)N[C@H]1CC[C@H](CCN2CC3(CC(c4ccc(N5CCC(=O)NC5=O)cc4)C3)C2)CC1` [P-433] are 37.6% and 700 nM.
As for `C[C@H](C#N)Nc1cc(Nc2ncc(C#N)cc2Cl)ncc1-n1cc([C@H]2CC[C@H](CCN3CC4(CC(c5ccc(N6CCC(=O)NC6=O)cc5)C4)C3)CC2)nn1` [P-434], the “LVL THP1 HTRF YMIN” value is 1.9% and the DC50 came out at 29.9 nM.
In the same order, the values of `C[C@H](C#N)Nc1cc(-n2ncc3cc(C#N)cnc32)ncc1-n1cc([C@H]2CC[C@H](CCN3CCN(c4ccc(N5CCC(=O)NC5=O)c(F)c4)[C@H](C)C3)CC2)nn1` [P-436] are −5.4% and 0.3 nM.
In the same order, the values of `C[C@H](C#N)Nc1cc(-n2ncc3cc(C#N)cnc32)ncc1-n1cc([C@H]2CC[C@H](CCN3CCN(c4ccc(N5CCC(=O)NC5=O)c(Cl)c4)[C@H](C)C3)CC2)nn1` [P-437] are 0.0% and 0.4 nM.
In the same order, the values of `C[C@H](C#N)Nc1cc(-n2ncc3cc(C#N)cnc32)ncc1-n1cc([C@H]2CC[C@H](CCN3CCN(c4ncc(N5CCC(=O)NC5=O)cn4)[C@H](C)C3)CC2)nn1` [P-438] are 2.2% and 3.4 nM.
With `C[C@H](C#N)Nc1cc(-n2ncc3cc(C#N)cnc32)ncc1-n1cc([C@H]2CC[C@H](CCN3CCC4(C3)CN(c3ccc(N5CCC(=O)NC5=O)cc3)C4)CC2)nn1` [P-439], the “LVL THP1 HTRF YMIN” value is 11.2% and the DC50 turned out to be 92.4 nM.
On to `C[C@H](C#N)Nc1cc(-n2ncc3cc(C#N)cnc32)ncc1-n1cc([C@H]2CC[C@H](CCN3CCN(c4cnc(N5CCC(=O)NC5=O)cn4)[C@H](C)C3)CC2)nn1` [P-440], for which the “LVL THP1 HTRF YMIN” value was 2.9% and the DC50 turned out to be 53.7 nM.
In the same order, the values of `CC[C@@H]1CN(CC[C@H]2CC[C@H](c3cn(-c4cnc(-n5ncc6cc(C#N)cnc65)cc4N[C@H](C)C#N)nn3)CC2)CCN1c1ccc(N2CCC(=O)NC2=O)cc1` [P-441] are −0.1% and 2.6 nM.
In the same order, the values of `CC[C@H]1CN(CC[C@H]2CC[C@H](c3cn(-c4cnc(-n5ncc6cc(C#N)cnc65)cc4N[C@H](C)C#N)nn3)CC2)CCN1c1ccc(C2CCC(=O)NC2=O)cc1` (some centres unmarked) [P-442] are −2.0% and 4.4 nM.
For `COc1cc(N2CCN(CC[C@H]3CC[C@H](c4cn(-c5cnc(-n6ncc7cc(C#N)cnc76)cc5N[C@H](C)C#N)nn4)CC3)CC2)ccc1N1CCC(=O)NC1=O` [P-443], in that order: −0.6% and 4.5 nM.
Regarding `C[C@H](C#N)Nc1cc(-n2ncc3cc(C#N)cnc32)ncc1-n1cc([C@H]2CC[C@H](CCN3CC4(CC(c5ccc(N6CCC(=O)NC6=O)c(F)c5)C4)C3)CC2)nn1` [P-444], the “LVL THP1 HTRF YMIN” value is −1.6% and the DC50 was found to be 5.2 nM.
`CC[C@H]1CN(CC[C@H]2CC[C@H](c3cn(-c4cnc(-n5ncc6cc(C#N)cnc65)cc4N[C@H](C)C#N)nn3)CC2)CCN1c1ccc(N2CCC(=O)NC2=O)cc1` [P-445]: the “LVL THP1 HTRF YMIN” value is 4.0% and the DC50 is 65.8 nM.
Take `CC[C@@H]1CN(CC[C@H]2CC[C@H](c3cn(-c4cnc(-n5ncc6cc(C#N)c(N)nc65)cc4N[C@H](C)C#N)nn3)CC2)CCN1c1ccc(N2CCC(=O)NC2=O)cn1` [P-446]: the “LVL THP1 HTRF YMIN” value was −1.4% and the DC50 worked out at 1.4 nM.
Turning to `CC[C@@H]1CN(CC[C@H]2CC[C@H](c3cn(-c4cnc(-n5ncc6cc(C#N)c(N)nc65)cc4N[C@H](C)C#N)nn3)CC2)CCN1c1ccc(N2CCC(=O)NC2=O)cc1` [P-447], the “LVL THP1 HTRF YMIN” value is on record as 0.8% and the DC50 is 0.6 nM.
Regarding `C[C@H](C#N)Nc1cc(-n2ncc3cc(C#N)cnc32)ncc1-n1cc([C@H]2CC[C@H](CCN3CCC4(C3)CN(c3ccc([C@@]5(C)CCC(=O)NC5=O)cc3)C4)CC2)nn1` [P-448], the “LVL THP1 HTRF YMIN” value is listed as 3.9% and the DC50 is 32.1 nM.
In the case of `C[C@H](C#N)Nc1cc(-n2ncc3cc(C#N)cnc32)ncc1-n1cc([C@H]2CC[C@H](CCN3CC4(CC(c5ccc(N6CCC(=O)NC6=O)cn5)C4)C3)CC2)nn1` [P-449], the “LVL THP1 HTRF YMIN” value came out at 23.7% and the DC50 came to 424 nM.
In the same order, the values of `CC[C@@H]1CN(CC[C@H]2CC[C@H](c3cn(-c4cnc(-n5ncc6cc(C#N)cnc65)cc4N[C@H](C)C#N)nn3)CC2)CCN1c1ccc(C2CCC(=O)NC2=O)cc1` (some centres unmarked) [P-452] are 0.5% and 1.9 nM.
Consider `C[C@H](C#N)Nc1cc(Nc2ncc(C#N)cc2Cl)ncc1-n1cc([C@H]2CC[C@H](CCN3CCN(c4ccc(N5CCC(=O)NC5=O)cn4)[C@H](C)C3)CC2)nn1` [P-455], for which the “LVL THP1 HTRF YMIN” value is given as −5.9% and the DC50 was 7.8 nM.
For `C[C@H](C#N)Nc1cc(-n2ncc3cc(C#N)cnc32)ncc1-n1cc([C@H]2CC[C@H](CCN3CC[C@@H](Oc4ccc(N5CCC(=O)NC5=O)cc4)C3)CC2)nn1` [P-458], the “LVL THP1 HTRF YMIN” value came to 15.0% and the DC50 is 128 nM.
In the same order, the values of `C[C@H](C#N)Nc1cc(-n2ncc3cc(C#N)cnc32)ncc1-n1cc([C@H]2CC[C@H](CCN3CCN(c4ccc(N5CCC(=O)NC5=O)cc4)C[C@H]3C)CC2)nn1` [P-459] are −0.5% and 2.5 nM.
In the same order, the values of `C[C@H](C#N)Nc1cc(-n2ncc3cc(C#N)c(N)nc32)ncc1-n1cc([C@H]2CC[C@H](CCN3CCN(c4ccc(N5CCC(=O)NC5=O)cn4)[C@H](C)C3)CC2)nn1` [P-463] are −3.4% and 0.1 nM.
For the molecule `C[C@H](C#N)Nc1cc(-n2ncc3cc(C#N)cnc32)ncc1-n1cc([C@H]2CC[C@H](CCN3CC[C@H](Oc4ccc(N5CCC(=O)NC5=O)cc4)C3)CC2)nn1` [P-465], the “LVL THP1 HTRF YMIN” value was determined as 18.9% and the DC50 worked out at 293 nM.
In the same order, the values of `C[C@H](C#N)Nc1cc(-n2ncc3cc(C#N)cnc32)ncc1-n1cc([C@H]2CC[C@H](CCN3CCN(c4ccc(N5CCC(=O)NC5=O)cc4)C[C@@H]3C)CC2)nn1` [P-468] are 2.3% and 17.2 nM.
In the same order, the values of `C[C@H](C#N)Nc1cc(-n2ncc3cc(C#N)cnc32)ncc1-n1cc([C@H]2CC[C@H](CCN3CCC4(c5ccc(N6CCC(=O)NC6=O)cc5)CC4C3)CC2)nn1` (some centres unmarked) [P-471] are 7.7% and 87.9 nM.
With `C[C@H](C#N)Nc1cc(Nc2ncc(C#N)cc2Cl)ncc1-n1cc([C@H]2CC[C@H](CCN3CC4(CC(c5ccc(N6CCC(=O)NC6=O)cn5)C4)C3)CC2)nn1` [P-473], the “LVL THP1 HTRF YMIN” value was 15.5% and the DC50 was 1000 nM.
Turning to `C[C@H](C#N)Nc1cc(-n2ncc3cc(C#N)cnc32)ncc1C(=O)N[C@H]1CC[C@H](CCN2CC[C@H]3[C@@H]2CCN3c2ccc(N3CCC(=O)NC3=O)c(Cl)c2)CC1` [P-475], the “LVL THP1 HTRF YMIN” value came to 6.4% and the DC50 stood at 47 nM.
In the same order, the values of `C[C@H](C#N)Nc1cc(-n2ncc3cc(C#N)cnc32)ncc1-n1cc([C@H]2CC[C@H](CCN3CCC(c4ccc5c(N6CCC(=O)NC6=O)nn(C)c5c4)CC3)CC2)nn1` [P-476] are 0.9% and 2 nM.
`C[C@H](C#N)Nc1cc(-n2ncc3cc(C#N)cnc32)ncc1-n1cc([C@H]2CC[C@H](CCN3CC(c4ccc(N5CCC(=O)NC5=O)cc4)C3)CC2)nn1` [P-477]: the “LVL THP1 HTRF YMIN” value worked out at 18.6% and the DC50 stood at 263 nM.
In the same order, the values of `C[C@H](C#N)Nc1cc(-n2ncc3cc(C#N)cnc32)ncc1C(=O)N[C@H]1CC[C@H](CCN2CC[C@H]3[C@@H]2CCN3c2ccc(N3CCC(=O)NC3=O)c(F)c2)CC1` [P-481] are 9.4% and 38 nM.
